Test results: ChEMBL document CHEMBL1201862, “PubChem BioAssay data set” (2004)
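Compound exposure: 48 hours, 5 concentrations, 96-well plates. GI50: concentration for 50% inhibition of growth.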 Activity calls are given as the source filed them. Cut-off read from the data, not from the text of the source: active = GI50 up to about 1.1 µM and inactive = higher.

How the values were obtained:
Assay in all cases: NCI tumour cell line growth inhibition, 48 h
M14 = tested on: M14
NCI-H460 = tested on: NCI-H460
MDA-MB-231 = tested on: MDA-MB-231
HCT-116 = tested on: HCT-116
PC-3 = tested on: PC-3
UO-31 = tested on: UO-31
A549 = tested on: A549
EKVX = tested on: EKVX
OVCAR-4 = tested on: OVCAR-4
T47D = tested on: T47D
SF-295 = tested on: SF-295
Hs-578T = tested on: Hs-578T
CAKI-1 = tested on: CAKI-1
SK-MEL-5 = tested on: SK-MEL-5
SR = tested on: SR
HCC 2998 = tested on: HCC 2998
BT-549 = tested on: BT-549
MDA-N = tested on: MDA-N
MDA-MB-435 = tested on: MDA-MB-435

Compound: COc1ccc(NC(=O)C(C#N)=C(SC)SC)cc1
- GI50 (M14): > 100 µM (inactive)
- GI50 (NCI-H460): > 100 µM (inactive)
- GI50 (MDA-MB-231): > 100 µM (inactive)
- GI50 (HCT-116): > 100 µM (inactive)
- GI50 (PC-3): > 100 µM (inactive)
- GI50 (UO-31): 60.3 µM (inactive)
- GI50 (A549): > 100 µM (inactive)
- GI50 (EKVX): > 100 µM (inactive)
- GI50 (OVCAR-4): > 100 µM (inactive)
- GI50 (T47D): > 100 µM (inactive)
- GI50 (SF-295): > 100 µM (inactive)
- GI50 (Hs-578T): > 100 µM (inactive)
- GI50 (CAKI-1): 50.5 µM (inactive)
- GI50 (SK-MEL-5): > 100 µM (inactive)
- GI50 (SR): > 100 µM (inactive)
- GI50 (HCC 2998): > 100 µM (inactive)
- GI50 (BT-549): > 100 µM (inactive)
- GI50 (MDA-N): > 100 µM (inactive)
- GI50 (MDA-MB-435): > 100 µM (inactive)

Compound: COc1cc(/N=C\N(C)C)c2ncccc2c1
- GI50 (M14): 48.8 µM (inactive)
- GI50 (MDA-MB-231): 35.2 µM (inactive)
- GI50 (HCT-116): 35.2 µM (inactive)
- GI50 (PC-3): 90.6 µM (inactive)
- GI50 (UO-31): 52 µM (inactive)
- GI50 (A549): 79.6 µM (inactive)
- GI50 (EKVX): > 100 µM (inactive)
- GI50 (OVCAR-4): > 100 µM (inactive)
- GI50 (T47D): 78 µM (inactive)
- GI50 (SF-295): 93.3 µM (inactive)
- GI50 (Hs-578T): 98.4 µM (inactive)
- GI50 (CAKI-1): 86.3 µM (inactive)
- GI50 (SK-MEL-5): 52.1 µM (inactive)
- GI50 (SR): 1.62 µM (inactive)
- GI50 (BT-549): 37.1 µM (inactive)
- GI50 (MDA-N): 20.4 µM (inactive)
- GI50 (MDA-MB-435): 28.5 µM (inactive)

Compound: COc1ccc2cc(CNCCCCCCNCc3ccc4cc(OC)ccc4c3)ccc2c1
- GI50 (M14): 0.169 µM (active)
- GI50 (NCI-H460): 0.255 µM (active)
- GI50 (MDA-MB-231): 0.465 µM (active)
- GI50 (HCT-116): 0.176 µM (active)
- GI50 (PC-3): 0.471 µM (active)
- GI50 (UO-31): 1.63 µM (inactive)
- GI50 (A549): 1.86 µM (inactive)
- GI50 (EKVX): 1.39 µM (inactive)
- GI50 (T47D): 0.452 µM (active)
- GI50 (SF-295): 0.486 µM (active)
- GI50 (Hs-578T): 1.75 µM (inactive)
- GI50 (CAKI-1): 1.38 µM (inactive)
- GI50 (SK-MEL-5): 1.33 µM (inactive)
- GI50 (SR): 0.184 µM (active)
- GI50 (HCC 2998): 0.132 µM (active)
- GI50 (BT-549): 1.72 µM (inactive)
- GI50 (MDA-N): 0.183 µM (active)
- GI50 (MDA-MB-435): 0.204 µM (active)

Compound: CC(=O)Nc1ccc(S(=O)(=O)N=S(C)C)cc1
- GI50 (M14): > 100 µM (inactive)
- GI50 (NCI-H460): > 100 µM (inactive)
- GI50 (MDA-MB-231): > 100 µM (inactive)
- GI50 (HCT-116): > 100 µM (inactive)
- GI50 (PC-3): > 100 µM (inactive)
- GI50 (UO-31): > 100 µM (inactive)
- GI50 (A549): > 100 µM (inactive)
- GI50 (EKVX): > 100 µM (inactive)
- GI50 (OVCAR-4): > 100 µM (inactive)
- GI50 (T47D): > 100 µM (inactive)
- GI50 (SF-295): > 100 µM (inactive)
- GI50 (Hs-578T): > 100 µM (inactive)
- GI50 (CAKI-1): > 100 µM (inactive)
- GI50 (SR): > 100 µM (inactive)
- GI50 (HCC 2998): > 100 µM (inactive)
- GI50 (BT-549): > 100 µM (inactive)
- GI50 (MDA-N): > 100 µM (inactive)
- GI50 (MDA-MB-435): > 100 µM (inactive)

Compound: COC(=O)[C@]12CC[C@H]3CN(C(=O)OCc4ccccc4)[C@H]([C@H]31)[C@H](c1ccccc1)N2
- GI50 (M14): 70 µM (inactive)
- GI50 (NCI-H460): > 100 µM (inactive)
- GI50 (MDA-MB-231): 59.3 µM (inactive)
- GI50 (HCT-116): 65.3 µM (inactive)
- GI50 (PC-3): 43.2 µM (inactive)
- GI50 (UO-31): 67.3 µM (inactive)
- GI50 (A549): 54.7 µM (inactive)
- GI50 (EKVX): 53.5 µM (inactive)
- GI50 (OVCAR-4): 64.7 µM (inactive)
- GI50 (T47D): 34.3 µM (inactive)
- GI50 (SF-295): 58.1 µM (inactive)
- GI50 (Hs-578T): > 100 µM (inactive)
- GI50 (CAKI-1): 70.6 µM (inactive)
- GI50 (SK-MEL-5): 22.9 µM (inactive)
- GI50 (SR): 42.2 µM (inactive)
- GI50 (HCC 2998): > 100 µM (inactive)
- GI50 (BT-549): 85.5 µM (inactive)
- GI50 (MDA-N): 57.3 µM (inactive)
- GI50 (MDA-MB-435): 52 µM (inactive)

Compound: O=C(O)[C@@H]1[C@H](C(=O)O)[C@H](C(=O)O)C[C@@H]1C(=O)O
- GI50 (M14): > 100 µM (inactive)
- GI50 (NCI-H460): > 100 µM (inactive)
- GI50 (MDA-MB-231): > 100 µM (inactive)
- GI50 (HCT-116): > 100 µM (inactive)
- GI50 (PC-3): > 100 µM (inactive)
- GI50 (UO-31): > 100 µM (inactive)
- GI50 (A549): > 100 µM (inactive)
- GI50 (EKVX): > 100 µM (inactive)
- GI50 (OVCAR-4): > 100 µM (inactive)
- GI50 (T47D): > 100 µM (inactive)
- GI50 (SF-295): > 100 µM (inactive)
- GI50 (Hs-578T): > 100 µM (inactive)
- GI50 (CAKI-1): > 100 µM (inactive)
- GI50 (SK-MEL-5): > 100 µM (inactive)
- GI50 (SR): > 100 µM (inactive)
- GI50 (BT-549): > 100 µM (inactive)
- GI50 (MDA-N): > 100 µM (inactive)
- GI50 (MDA-MB-435): > 100 µM (inactive)

Compound: O=C(O)C(Cc1cccs1)C(=O)O
- GI50 (M14): > 100 µM (inactive)
- GI50 (NCI-H460): > 100 µM (inactive)
- GI50 (MDA-MB-231): > 100 µM (inactive)
- GI50 (HCT-116): > 100 µM (inactive)
- GI50 (PC-3): > 100 µM (inactive)
- GI50 (UO-31): > 100 µM (inactive)
- GI50 (A549): > 100 µM (inactive)
- GI50 (EKVX): > 100 µM (inactive)
- GI50 (OVCAR-4): > 100 µM (inactive)
- GI50 (T47D): > 100 µM (inactive)
- GI50 (Hs-578T): > 100 µM (inactive)
- GI50 (CAKI-1): > 100 µM (inactive)
- GI50 (SK-MEL-5): > 100 µM (inactive)
- GI50 (SR): > 100 µM (inactive)
- GI50 (HCC 2998): > 100 µM (inactive)
- GI50 (BT-549): > 100 µM (inactive)
- GI50 (MDA-N): > 100 µM (inactive)
- GI50 (MDA-MB-435): > 100 µM (inactive)

Compound: COc1nc(N)c(N=O)c(OCc2ccccc2)n1
- GI50 (M14): 4.84 µM (inactive)
- GI50 (NCI-H460): 9.29 µM (inactive)
- GI50 (MDA-MB-231): 3.32 µM (inactive)
- GI50 (HCT-116): 9.71 µM (inactive)
- GI50 (PC-3): > 10 µM (inactive)
- GI50 (A549): > 10 µM (inactive)
- GI50 (EKVX): 2.64 µM (inactive)
- GI50 (OVCAR-4): 3.61 µM (inactive)
- GI50 (T47D): 2.76 µM (inactive)
- GI50 (SF-295): > 10 µM (inactive)
- GI50 (Hs-578T): > 10 µM (inactive)
- GI50 (CAKI-1): 3.51 µM (inactive)
- GI50 (SK-MEL-5): 7.89 µM (inactive)
- GI50 (SR): 4.84 µM (inactive)
- GI50 (HCC 2998): > 10 µM (inactive)
- GI50 (BT-549): 4.01 µM (inactive)
- GI50 (MDA-N): 5.36 µM (inactive)
- GI50 (MDA-MB-435): 6.31 µM (inactive)

Compound: CC12Nc3c(Cl)cc(Cl)cc3N1C(=O)c1ccccc12 (centres undefined)
- GI50 (NCI-H460): 95.5 µM (inactive)
- GI50 (MDA-MB-231): > 100 µM (inactive)
- GI50 (HCT-116): > 100 µM (inactive)
- GI50 (PC-3): > 100 µM (inactive)
- GI50 (UO-31): 52.7 µM (inactive)
- GI50 (A549): > 100 µM (inactive)
- GI50 (EKVX): 57 µM (inactive)
- GI50 (OVCAR-4): 90.2 µM (inactive)
- GI50 (T47D): > 100 µM (inactive)
- GI50 (SF-295): > 100 µM (inactive)
- GI50 (Hs-578T): 48 µM (inactive)
- GI50 (CAKI-1): > 100 µM (inactive)
- GI50 (SK-MEL-5): > 100 µM (inactive)
- GI50 (SR): 63.8 µM (inactive)
- GI50 (HCC 2998): > 100 µM (inactive)
- GI50 (BT-549): 71.6 µM (inactive)
- GI50 (MDA-N): > 100 µM (inactive)
- GI50 (MDA-MB-435): > 100 µM (inactive)

Compound: O=C(CCCl)NN=C1NCCCN1
- GI50 (M14): > 100 µM (inactive)
- GI50 (NCI-H460): > 100 µM (inactive)
- GI50 (MDA-MB-231): > 100 µM (inactive)
- GI50 (HCT-116): > 100 µM (inactive)
- GI50 (PC-3): > 100 µM (inactive)
- GI50 (UO-31): > 100 µM (inactive)
- GI50 (A549): > 100 µM (inactive)
- GI50 (EKVX): > 100 µM (inactive)
- GI50 (OVCAR-4): > 100 µM (inactive)
- GI50 (T47D): > 100 µM (inactive)
- GI50 (SF-295): > 100 µM (inactive)
- GI50 (Hs-578T): > 100 µM (inactive)
- GI50 (SK-MEL-5): > 100 µM (inactive)
- GI50 (SR): > 100 µM (inactive)
- GI50 (HCC 2998): > 100 µM (inactive)
- GI50 (BT-549): > 100 µM (inactive)
- GI50 (MDA-N): > 100 µM (inactive)
- GI50 (MDA-MB-435): > 100 µM (inactive)

Compound: C=C(C)OCOCCOC
- GI50 (M14): > 100 µM (inactive)
- GI50 (NCI-H460): > 100 µM (inactive)
- GI50 (MDA-MB-231): > 100 µM (inactive)
- GI50 (HCT-116): > 100 µM (inactive)
- GI50 (PC-3): > 100 µM (inactive)
- GI50 (UO-31): > 100 µM (inactive)
- GI50 (A549): > 100 µM (inactive)
- GI50 (EKVX): > 100 µM (inactive)
- GI50 (T47D): > 100 µM (inactive)
- GI50 (SF-295): > 100 µM (inactive)
- GI50 (Hs-578T): > 100 µM (inactive)
- GI50 (CAKI-1): > 100 µM (inactive)
- GI50 (SK-MEL-5): > 100 µM (inactive)
- GI50 (SR): > 100 µM (inactive)
- GI50 (HCC 2998): > 100 µM (inactive)
- GI50 (BT-549): > 100 µM (inactive)
- GI50 (MDA-N): > 100 µM (inactive)
- GI50 (MDA-MB-435): > 100 µM (inactive)
